Columns and labels:
S. pneumoniae D39V [1] = experiment: Bliss interaction score (quartile over a dose matrix) (fitness difference); higher = more antagonism (negative = synergy)
Outline: (§1)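 The Bliss score is observed minus expected fitness under the product model, reported as quartiles over technical, biological and donor/recipient replicates. Fitness is the OD595 at entry into stationary phase divided by the plate's robust no-drug mean and capped at 1. Single-drug fitness was inferred from combination data.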

S. aureus Newman = experiment: as above
Outline: as §1

B. subtilis 168 [2] = experiment: as above
Outline: as §1

S. aureus DSM 20231 [3] = experiment: as above
Outline: as §1

S. pneumoniae D39V [4] = experiment: fitness (endpoint OD595 vs no drug) (fraction); higher = more growth
Outline: (§2)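 Volumes were 30 µl per well, or 55 µl for S. pneumoniae, in 384-well plates inoculated at OD595 0.01. Media were TSB, LB Lennox or CY at 37 °C, and OD595 was read every 30 min for 14 h with first-reading background subtraction. Fitness is the ratio of optical density at stationary-phase entry to the robust mean of no-drug controls. That ratio is capped at 1.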

B. subtilis 168 [5] = experiment: as above
Outline: as §2

S. aureus DSM 20231 [6] = experiment: as above
Outline: as §2
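Throughout, for Bliss interaction score (quartile over a dose matrix): first quartile when negative (synergy) and third quartile when positive (antagonism).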

CC(=O)NC[C@H]1CN(c2ccc(N3CCOCC3)c(F)c2)C(=O)O1 [Linezolid] + CN1C2=CC=CC=C2N=C3C1=CC=CC3=O [Pyocyanin]
Conditions	Bliss interaction score
B. subtilis 168 [2]	0.109
S. aureus DSM 20231 [3]	0.047
S. aureus Newman	-0.0368
S. pneumoniae D39V [1]	0.118

Conditions	fitness
B. subtilis 168 [5], first compound 0.125 µg/mL, partner 1.25 µg/mL	0.563
B. subtilis 168 [5], first compound 0.125 µg/mL, partner 2.5 µg/mL	0.544
B. subtilis 168 [5], first compound 0.125 µg/mL, partner 5 µg/mL	0.466
B. subtilis 168 [5], first compound 0.25 µg/mL, partner 2.5 µg/mL	0.093
B. subtilis 168 [5], first compound 0.25 µg/mL, partner 5 µg/mL	0.131
B. subtilis 168 [5], first compound 0.5 µg/mL, partner 1.25 µg/mL	0.027
B. subtilis 168 [5], first compound 0.5 µg/mL, partner 2.5 µg/mL	0.0397
B. subtilis 168 [5], first compound 0.5 µg/mL, partner 5 µg/mL	0.0383
S. aureus DSM 20231 [6], first compound 0.125 µg/mL, partner 1.25 µg/mL	0.768
S. aureus DSM 20231 [6], first compound 0.125 µg/mL, partner 2.5 µg/mL	0.829
S. aureus DSM 20231 [6], first compound 0.125 µg/mL, partner 5 µg/mL	0.546
S. aureus DSM 20231 [6], first compound 0.25 µg/mL, partner 1.25 µg/mL	0.559
S. aureus DSM 20231 [6], first compound 0.5 µg/mL, partner 1.25 µg/mL	0.208
S. aureus DSM 20231 [6], first compound 0.5 µg/mL, partner 2.5 µg/mL	0.143
S. aureus DSM 20231 [6], first compound 0.5 µg/mL, partner 5 µg/mL	0.0745
S. pneumoniae D39V [4], first compound 0.105 µg/mL, partner 0.325 µg/mL	0.858
S. pneumoniae D39V [4], first compound 0.105 µg/mL, partner 0.65 µg/mL	0.882
S. pneumoniae D39V [4], first compound 0.105 µg/mL, partner 1.3 µg/mL	0.632
S. pneumoniae D39V [4], first compound 0.21 µg/mL, partner 0.325 µg/mL	0.773
S. pneumoniae D39V [4], first compound 0.21 µg/mL, partner 0.65 µg/mL	0.775
S. pneumoniae D39V [4], first compound 0.21 µg/mL, partner 1.3 µg/mL	0.608
S. pneumoniae D39V [4], first compound 0.42 µg/mL, partner 0.325 µg/mL	0.605
S. pneumoniae D39V [4], first compound 0.42 µg/mL, partner 0.65 µg/mL	0.589
S. pneumoniae D39V [4], first compound 0.42 µg/mL, partner 1.3 µg/mL	0.389

one replicate
Conditions	fitness
B. subtilis 168 [5], first compound 0.0625 µg/mL, partner 1.25 µg/mL	0.804
B. subtilis 168 [5], first compound 0.0625 µg/mL, partner 2.5 µg/mL	0.749
B. subtilis 168 [5], first compound 0.0625 µg/mL, partner 5 µg/mL	0.594
S. aureus DSM 20231 [6], first compound 1 µg/mL, partner 1.25 µg/mL	0.0458
S. aureus DSM 20231 [6], first compound 1 µg/mL, partner 2.5 µg/mL	0.0282
S. aureus DSM 20231 [6], first compound 1 µg/mL, partner 5 µg/mL	0.0258
S. pneumoniae D39V [4], first compound 0.2 µg/mL, partner 0.325 µg/mL	0.892
S. pneumoniae D39V [4], first compound 0.2 µg/mL, partner 0.65 µg/mL	0.824
S. pneumoniae D39V [4], first compound 0.4 µg/mL, partner 0.325 µg/mL	0.745
S. pneumoniae D39V [4], first compound 0.4 µg/mL, partner 0.65 µg/mL	0.745
S. pneumoniae D39V [4], first compound 0.8 µg/mL, partner 0.325 µg/mL	0.483
S. pneumoniae D39V [4], first compound 0.8 µg/mL, partner 0.65 µg/mL	0.603

CC(=O)NC[C@H]1CN(c2ccc(N3CCOCC3)c(F)c2)C(=O)O1 [Linezolid] + CN(N=O)C(=O)N[C@@H](C=O)[C@@H](O)[C@H](O)[C@H](O)CO [Streptozotocin]
Conditions	Bliss interaction score
B. subtilis 168 [2]	-0.0322
S. aureus DSM 20231 [3]	-0.0379
S. aureus Newman	-0.0367
S. pneumoniae D39V [1]	-0.115

fitness
Conditions	partner 0.15 µg/mL	partner 0.3 µg/mL	partner 0.6 µg/mL	partner 1.2 µg/mL	partner 2.4 µg/mL	partner 4.8 µg/mL
B. subtilis 168 [5], first compound 0.125 µg/mL	0.479	0.502	0.453	–	–	–
B. subtilis 168 [5], first compound 0.25 µg/mL	0.0775	0.0625	0.0614	–	–	–
S. aureus DSM 20231 [6], first compound 0.125 µg/mL	0.778	0.738	0.68	–	–	–
S. aureus DSM 20231 [6], first compound 0.25 µg/mL	0.519	0.504	0.496	–	–	–
S. aureus DSM 20231 [6], first compound 0.5 µg/mL	0.129	0.176	0.133	–	–	–
S. pneumoniae D39V [4], first compound 0.105 µg/mL	–	–	–	0.771	0.815	0.778
S. pneumoniae D39V [4], first compound 0.21 µg/mL	–	–	–	0.69	0.668	0.704
S. pneumoniae D39V [4], first compound 0.42 µg/mL	–	–	–	0.438	0.432	0.408

fitness, one replicate
Conditions	partner 0.15 µg/mL	partner 0.3 µg/mL	partner 0.6 µg/mL	partner 1.2 µg/mL	partner 2.4 µg/mL	partner 4.8 µg/mL
B. subtilis 168 [5], first compound 0.0625 µg/mL	0.957	0.927	0.929	–	–	–
B. subtilis 168 [5], first compound 0.5 µg/mL	0.0222	0.0242	0.0095	–	–	–
S. aureus DSM 20231 [6], first compound 1 µg/mL	0.023	0.0376	0.0265	–	–	–
S. pneumoniae D39V [4], first compound 0.2 µg/mL	–	–	–	0.806	0.823	0.787
S. pneumoniae D39V [4], first compound 0.4 µg/mL	–	–	–	0.615	0.69	0.653
S. pneumoniae D39V [4], first compound 0.8 µg/mL	–	–	–	0.299	0.351	0.204

CC(=O)NC[C@H]1CN(c2ccc(N3CCOCC3)c(F)c2)C(=O)O1 [Linezolid] + CN[C@@H]1[C@H](O)[C@H](NC)[C@H]2O[C@@]3(O)C(=O)C[C@@H](C)O[C@H]3O[C@@H]2[C@H]1O [Spectinomycin]
Conditions	Bliss interaction score
B. subtilis 168 [2]	-0.0551
S. aureus DSM 20231 [3]	-0.0609
S. aureus Newman	-0.12
S. pneumoniae D39V [1]	-0.134

fitness
Conditions	partner 2 µg/mL	partner 4 µg/mL	partner 8 µg/mL	partner 16 µg/mL
B. subtilis 168 [5], first compound 0.125 µg/mL	0.507	0.426	0.336	–
B. subtilis 168 [5], first compound 0.25 µg/mL	–	0.0516	0.0689	–
B. subtilis 168 [5], first compound 0.5 µg/mL	0.0491	0.039	0.0208	–
S. aureus DSM 20231 [6], first compound 0.125 µg/mL	–	0.857	0.838	0.702
S. aureus DSM 20231 [6], first compound 0.25 µg/mL	–	0.547	0.458	0.419
S. aureus DSM 20231 [6], first compound 0.5 µg/mL	–	0.156	0.119	0.175
S. pneumoniae D39V [4], first compound 0.105 µg/mL	–	0.767	0.73	0.694
S. pneumoniae D39V [4], first compound 0.21 µg/mL	–	0.663	0.662	0.582
S. pneumoniae D39V [4], first compound 0.42 µg/mL	–	0.454	0.343	0.284

one replicate
Conditions	fitness
B. subtilis 168 [5], first compound 0.0625 µg/mL, partner 2 µg/mL	0.893
B. subtilis 168 [5], first compound 0.0625 µg/mL, partner 4 µg/mL	0.814
B. subtilis 168 [5], first compound 0.0625 µg/mL, partner 8 µg/mL	0.654
S. aureus DSM 20231 [6], first compound 0.125 µg/mL, partner 32 µg/mL	0.472
S. aureus DSM 20231 [6], first compound 0.125 µg/mL, partner 64 µg/mL	0.0532
S. aureus DSM 20231 [6], first compound 0.25 µg/mL, partner 32 µg/mL	0.341
S. aureus DSM 20231 [6], first compound 0.25 µg/mL, partner 64 µg/mL	0.037
S. aureus DSM 20231 [6], first compound 0.5 µg/mL, partner 32 µg/mL	0.135
S. aureus DSM 20231 [6], first compound 0.5 µg/mL, partner 64 µg/mL	0.0476
S. aureus DSM 20231 [6], first compound 1 µg/mL, partner 4 µg/mL	0.0244
S. aureus DSM 20231 [6], first compound 1 µg/mL, partner 8 µg/mL	0.0183
S. aureus DSM 20231 [6], first compound 1 µg/mL, partner 16 µg/mL	0.009
S. pneumoniae D39V [4], first compound 0.2 µg/mL, partner 4 µg/mL	0.8
S. pneumoniae D39V [4], first compound 0.2 µg/mL, partner 8 µg/mL	0.769
S. pneumoniae D39V [4], first compound 0.4 µg/mL, partner 4 µg/mL	0.633
S. pneumoniae D39V [4], first compound 0.4 µg/mL, partner 8 µg/mL	0.659
S. pneumoniae D39V [4], first compound 0.8 µg/mL, partner 4 µg/mL	0.271
S. pneumoniae D39V [4], first compound 0.8 µg/mL, partner 8 µg/mL	0.302

Reference: the supplement of paper PMC10627819
